In ChEMBL document CHEMBL5113487, “Novel anilinopyrimidine derivatives as potential EGFRT790M/C797S Inhibitors: Design, Synthesis, biological activity study” (Bioorg Med Chem, 2022):

How the values were obtained:
[1] = target: Epidermal growth factor receptor (Homo sapiens, UniProt P00533, C797S/EX18DEL/T790M); test: Inhibition of EGFR del18/T790M/C797S triple mutant (unknown origin) using TK as substrate incubated for 120 mins in the presence of ATP by HTRF assay
[2] = target: Epidermal growth factor receptor (Homo sapiens, UniProt P00533, C797S/L858R/T790M); test: Inhibition of EGFR L858R/T790M/C797S triple mutant (unknown origin) using TK as substrate incubated for 120 mins in the presence of ATP by HTRF assay
BaF3 = test: Antiproliferative activity against mouse BaF3 cells harboring del18/T790M/C797S triple mutant assessed as cell growth inhibition incubated for 72 hrs by cell titre glo luminescence assay; assay type: functional, cell-based; details: BaF3, 72 h
[3] = Cmax in mouse at 5 mg/kg measured upto 24 hrs by LC-MS/MS analysis; assay type: ADME, organism-based; parameters: time < 24 hrs, dose 5 mg/kg; details: in vivo
[4] = AUC(0 to t) in mouse at 5 mg/kg measured upto 24 hrs by LC-MS/MS analysis; assay type: ADME, organism-based; parameters: time < 24 hrs, dose 5 mg/kg; details: in vivo
[5] = AUC(0 to infinity) in mouse at 5 mg/kg measured upto 24 hrs by LC-MS/MS analysis; assay type: ADME, organism-based; parameters: dose 5 mg/kg, time < 24 hrs; details: in vivo
[6] = Half-life in mouse at 5 mg/kg measured upto 24 hrs by LC-MS/MS analysis; assay type: ADME, organism-based; details: in vivo
[7] = MRT in mouse at 5 mg/kg measured upto 24 hrs by LC-MS/MS analysis; assay type: ADME, organism-based; details: in vivo
[8] = target: Epidermal growth factor receptor (Homo sapiens, UniProt P00533); test: Inhibition of wild type EGFR (unknown origin) using TK as substrate incubated for 120 mins in the presence of ATP by HTRF assay
A-431 = test: Antiproliferative activity against human A-431 cells assessed as cell growth inhibition incubated for 72 hrs by cell titre glo luminescence assay; assay type: functional, cell-based; details: A-431, 72 h
[9] = test system: Epidermal growth factor receptor (Homo sapiens), P00533 [UNDEFINED MUTATION]; test: Potency index, ratio of brigatinib IC50 to test compound IC50 for inhibition of EGFR del18/T790M/C797S triple mutant (unknown origin) using TK as substrate incubated for 120 mins in the presence of ATP by HTRF assay
[10] = test system: Epidermal growth factor receptor (Homo sapiens), P00533 [L858R,T790M,C797S]; test: Potency index, ratio of brigatinib IC50 to test compound IC50 for inhibition of EGFR L858R/T790M/C797S triple mutant (unknown origin) using TK as substrate incubated for 120 mins in the presence of ATP by HTRF assay

SMILES	IC50 [1]	IC50 [2]	IC50 (BaF3)	Cmax [3]	AUC(0-t) at 24 h [4]	AUC(0-inf) [5]	half-life [6]	MRT [7]	IC50 [8]	IC50 (A-431)	Ratio IC50 [9]	Ratio IC50 [10]
CCc1cc(Nc2ncc(Br)c(Nc3ccc4c(c3P(C)(C)=O)OCCO4)n2)c(OC)cc1N1CCC(N2CC(CC#N)C2)CC1	0.49 nM	0.41 nM	7 nM						416 nM			
CCc1cc(Nc2ncc(Br)c(Nc3ccn4ncnc4c3P(C)(C)=O)n2)c(OC)cc1N1CCC(N2CCN(CC)CC2)CC1	0.1 nM	0.67 nM	34 nM						> 500 nM	731 nM		
COc1cc(N2CCC(N3CCCOCC3)CC2)c(C)cc1Nc1ncc(Br)c(Nc2ccc3c(c2P(C)(C)=O)OCCO3)n1	0.13 nM	0.19 nM	20 nM									
COc1cc(N2CCC(N3CCCN(C)CC3)CC2)c(C)cc1Nc1ncc(Br)c(Nc2ccc3c(c2P(C)(C)=O)OCCO3)n1	0.05 nM	0.1 nM	24 nM									
CCc1cc(Nc2ncc(Br)c(Nc3ccc4ncnn4c3P(C)(C)=O)n2)c(OC)cc1N1CCC(N2CC(COC)C2)CC1	0.1 nM	0.84 nM	37 nM						> 500 nM	702 nM		
CCc1cc(Nc2ncc(Br)c(Nc3ccn4ncnc4c3P(C)(C)=O)n2)c(OC)cc1N1CCC(N2CCOCC2)CC1	0.18 nM	0.93 nM	40 nM						> 500 nM	1300 nM		
CCc1cc(Nc2ncc(Br)c(Nc3ccc4c(c3P(C)(C)=O)OCCO4)n2)c(OC)cc1N1CCC(N2CC(COC)C2)CC1	0.15 nM	0.12 nM	12 nM									
CCOC1CN(C2CCN(c3cc(OC)c(Nc4ncc(Br)c(Nc5ccc6ncnn6c5P(C)(C)=O)n4)cc3CC)CC2)C1	0.9 nM	0.67 nM	44 nM						> 500 nM	1010 nM		

Now from value to compound:

IC50 [1]	IC50 [2]	IC50 (BaF3)	Cmax [3]	AUC(0-t) at 24 h [4]	AUC(0-inf) [5]	half-life [6]	MRT [7]	IC50 [8]	IC50 (A-431)	Ratio IC50 [9]	Ratio IC50 [10]	SMILES
0.4 nM	0.15 nM	14 nM	1470 ng/mL	12300 ng·h/mL	12500 ng·h/mL	4.2 h	6 h					CCc1cc(Nc2ncc(Br)c(Nc3ccc4c(c3P(C)(C)=O)OCO4)n2)c(OC)cc1N1CCC(N2CC(N(C)C)C2)CC1
0.08 nM	0.08 nM	8 nM	2110 ng/mL	21000 ng·h/mL	21400 ng·h/mL	4 h	6.3 h					CCc1cc(Nc2ncc(Br)c(Nc3ccc4c(c3P(C)(C)=O)OCCO4)n2)c(OC)cc1N1CCC(N2CC(N(C)C)C2)CC1
0.06 nM	0.09 nM	13 nM										COc1cc(N2CCC(N3CC(N(C)C)C3)CC2)c(C)cc1Nc1ncc(Br)c(Nc2ccc3nccnc3c2P(C)(C)=O)n1
0.3 nM	0.22 nM	13 nM	1680 ng/mL	16400 ng·h/mL	16500 ng·h/mL	5.6 h	6 h					COc1cc(N2CCC(N3CC(N(C)C)C3)CC2)c(C)cc1Nc1ncc(Br)c(Nc2ccc3c(c2P(C)(C)=O)OCCO3)n1
		32 nM	2030 ng/mL	25200 ng·h/mL	25300 ng·h/mL	3.2 h	6.1 h					CCOC1CN(C2CCN(c3cc(OC)c(Nc4ncc(Br)c(Nc5ccc6c(c5P(C)(C)=O)OCCO6)n4)cc3C)CC2)C1
0.28 nM	0.41 nM	30 nM	1260 ng/mL	11100 ng·h/mL	11200 ng·h/mL	3.5 h	5.5 h					CCO[C@@H]1CCN(C2CCN(c3cc(OC)c(Nc4ncc(Br)c(Nc5ccc6c(c5P(C)(C)=O)OCCO6)n4)cc3C)CC2)C1
0.83 nM	0.27 nM	9 nM						3000 nM	490 nM			CCc1cc(Nc2ncc(Br)c(Nc3ccc4nccnc4c3P(C)(C)=O)n2)c(OC)cc1N1CCC(N2CCCN(C)CC2)CC1
0.12 nM	0.15 nM	28 nM										COc1cc(N2CCC(N3CC[C@H](N(C)C)C3)CC2)c(C)cc1Nc1ncc(Br)c(Nc2ccc3c(c2P(C)(C)=O)OCCO3)n1
0.65 nM	0.43 nM	29 nM						652 nM	422 nM			CCOC1CN(C2CCN(c3cc(OC)c(Nc4ncc(Br)c(Nc5ccc6nccnc6c5P(C)(C)=O)n4)cc3C)CC2)C1
	0.28 nM	35 nM						> 500 nM				CCN(C)C1CN(C2CCN(c3cc(OC)c(Nc4ncc(Br)c(Nc5ccc6c(c5P(C)(C)=O)OCCO6)n4)cc3C)CC2)C1
0.11 nM	0.08 nM	16 nM								7	40	CCc1cc(Nc2ncc(Br)c(Nc3ccc4nccnc4c3P(C)(C)=O)n2)c(OC)cc1N1CCC(N2CC(N(C)C)C2)CC1
